From patent US20080207614A1, “QUINAZOLINE DERIVATIVES FOR THE TREATMENT AND PREVENTION OF DIABETES AND OBESITY” (SK CHEMICALS CO., LTD., priority 2004, published 2008)

Experiments:
C2C12 muscle cells = experiment: Analysis of glucose absorption (2-deoxyglucose) in differentiated C2C12 muscle cells; type: cell-based; settings: test materials 10 μM, times relative to control group
Method in brief: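 Uptake of 0.2 μCi 2-deoxyglucose over 20 min, counted radiometrically in lysed cells. Before tracer, compounds (10 μM) were applied for 30 min to C2C12 cells differentiated 6 days in 1% serum and equilibrated 3 h in 5 mM glucose KRB.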

AMPK = experiment: Measurement of AMPK activity by Western blot in C2C12 cells; type: cell-based; parameters: key to AMPK activity (degree of phosphorylation of serine-79 and threonine-172): fold increase in threonine-172 phosphorylation; settings: 10 μM for 50 minutes, no superscript: Western blot of serine-79 and threonine-172 phosphorylation
Method in brief: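 Western blot readout of AMPK Thr-172 and ACC Ser-79 phosphorylation, normalised against ERK, served as the activity measure. Cells were C2C12 after differentiation, treated 50 minutes with 10 μM test material. Grading by Thr-172 increase: ≥3-fold strong, 1-3-fold mild, <1-fold weak.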

Compound	Glucose absorption (C2C12 muscle cells)	AMPK activity (degree of phosphorylation of serine-79 and threonine-172) (AMPK)
COc1ccc(COc2nc(-c3ccccc3)nc3ccccc23)c(OC)c1 [Compound 273, 4-(2,4-Dimethoxybenzyloxy)-2-phenylquinazoline]	0.7	1.5
COc1ccc(CSc2nc(-c3ccccc3)nc3ccccc23)c(OC)c1 [Compound 274, 4-(2,4-Dimethoxybenzylsulfanyl)-2-phenylquinazoline]	0.8	1.9
COc1ccccc1CNc1nc(N2CCCC2)nc2ccccc12 [Compound 275, (2-Methoxybenzyl)-(2-pyrrolidino-1-ylquinazolino-4-yl)-amine]	0.8	2.1
COc1ccccc1CNc1nc(N2CCCCC2)nc2ccccc12 [Compound 276, (2-Methoxybenzyl)-(2-piperidino-1-ylquinazolino-4-yl)-amine]	0.8	1.9
COc1ccc(CNc2nc(N3CCCC3)nc3ccccc23)cc1 [Compound 283, (4-Methoxybenzyl)-(2-pyrrolidino-1-ylquinazolino-4-yl)-amine]	1.0	1.1
COc1ccc(CNc2nc(N3CCOCC3)nc3ccccc23)cc1 [Compound 285, (4-Methoxybenzyl)-(2-morpholino-4-ylquinazolino-4-yl)-amine]	0.8	1.6
COc1cccc(CNc2nc(N3CCCCC3)nc3ccccc23)c1OC [Compound 288, (2,3-Dimethoxybenzyl)-(2-piperidino-1-ylquinazolino-4-yl)-amine]	0.8	1.7
COc1ccc(CNc2nc(N3CCCC3)nc3ccccc23)c(OC)c1 [Compound 291, (2,4-Dimethoxybenzyl)-(2-pyrrolidino-1-ylquinazolino-4-yl)-amine]	0.8	1.5
COc1ccc(CNc2nc(N3CCCCC3)nc3ccccc23)c(OC)c1 [Compound 292, (2,4-Dimethoxybenzyl)-(2-piperidino-1-ylquinazolino-4-yl)-amine]	0.7	1.2
COc1ccc(CNc2nc(N3CCOCC3)nc3ccccc23)c(OC)c1 [Compound 293, (2,4-Dimethoxybenzyl)-(2-morpholino-4-ylquinazolino-4-yl)-amine]	0.6	0.1
COc1ccc(OC)c(CNc2nc(N3CCCCC3)nc3ccccc23)c1 [Compound 296, (2,5-Dimethoxybenzyl)-(2-piperidino-1-ylquinazolino-4-yl)-amine]	0.9	1.0
COc1ccc(OC)c(CNc2nc(N3CCN(C)CC3)nc3ccccc23)c1 [Compound 298, (2,5-Dimethoxybenzyl)-[2-(4-methylpiperazino-1-yl)-quinazolino-4-yl]-amine]	0.6	0.7
COc1ccc(CNc2nc(N3CCCC3)nc3ccccc23)cc1OC [Compound 299, (3,4-Dimethoxybenzyl)-(2-pyrrolidino-1-ylquinazolino-4-yl)-amine]	0.8	0.6
COc1ccc(CNc2nc(N3CCCCC3)nc3ccccc23)cc1OC [Compound 300, (3,4-Dimethoxybenzyl)-(2-piperidino-1-ylquinazolino-4-yl)-amine]	0.9	1.0
COc1ccc(CNc2nc(N3CCOCC3)nc3ccccc23)cc1OC [Compound 301, (3,4-Dimethoxybenzyl)-(2-morpholino-4-ylquinazolino-4-yl)-amine]	0.8	0.9
